Data published in patent US20040253665A1, “Novel peptide-producing enzyme, microbe producing the enzyme and method for dipeptide synthesis using them” (AJINOMOTO CO., INC., priority 2002, published 2004).
Read-outs that look alike come from different tables or passages of the source. Non-standard residues stand in square brackets, D forms with d. Residues, ends and D or L forms follow the SMILES beside them. *: point of attachment. 2Nal = N[C@@H](Cc1ccc2ccccc2c1)C(=O)O; Tle = CC(C)(C)[C@H](N)C(=O)O; tBu = CC(C)(C)*

Legend:
Type in all cases: biochemical
[1] = tested on: peptide-producing enzyme (Mono S fraction) from Empedobacter brevis strain FERM BP-8113; experiment: Enzyme substrate specificity (1)-(10), (13), (14); design: key: +: those peptides for which production was confirmed but which were unable to be quantified due to the absence of a standard; a trace amount
From the text: (§1) Ester specificity was examined in the case of using L-amino acid ester for the carboxy component. […] The amounts of L-Ala-L-Gln produced in this reaction are shown in Table 4 (HCl represents hydrochloride in Table 4). Peptide production was examined in the case of using L-alanine methyl ester for the carboxy component and using various L-amino acids for the amine component. […] (The “+” mark indicates those peptides for which production was confirmed but which were unable to be quantified due to the absence of a standard, while “tr” indicates a trace amount.) Peptide production was examined in the case of using various types of L-amino acid methyl esters for the carboxy component and using L-glutamine for the amine component. […] Peptide production was examined in the case of using various L-amino acid methyl esters for the carboxy component and various L-amino acids for the amine component. […] (The “tr” indicates a trace amount.) Furthermore, Tween-80 was added to the reaction system to a final concentration of 0.1% in the case of using L-Trp-OMe. (The “+” mark indicates those peptides for which production was confirmed but which were unable to be quantified due to the absence of a standard.) […] (The “tr” indicates a trace amount.) Peptide production was examined using various L-amino acid amides for the carboxy component, and various L-amino acids for the amine component. […] Peptide production was examined in the case of using various L-alanine methyl esters for the carboxy component and C-protected L-amino acids for the amine component. […] Peptide production was examined in the case of using various amino acid methyl esters for the carboxy component and methylamine for the amine component. […] Peptide production was examined in the case of using β-amino acid ester for the carboxy component or β-amino acid for the amine component. […] (The “tr” indicates a trace amount.) Oligopeptide production was examined in the case of using L-amino acid ester for the carboxy component and peptide for the amine component. […] Substrate specificity was additionally assessed using the same enzyme fraction as that used in Example 5. […] (A “+” mark indicates those for which production was confirmed but which were unable to be quantified due to the absence of a standard, while “tr” indicates a trace amount). Substrate specificity with respect to oligopeptide production was assessed using the same enzyme fraction as Example 26. […] (A “+” mark indicates those for which production was confirmed but which were unable to be quantified due to the absence of a standard, while “tr” indicates a trace amount). It should be noted that hydrochlorides were used for all of the carboxy components.

[2] = tested on: enzyme (SP-Sepharose HP fraction) derived from Sphingobacterium sp. strain FERM BP-8124; design: key to Produced peptide (mM): +: those peptides for which production was confirmed but which were unable to be quantified due to the absence of a standard; a trace amount; details: 0.33 units enzyme, pH 9.0, 25° C., 1.5 hours
Description: Substrate specificity was examined for enzyme derived from Sphingobacterium sp. strain FERM BP-8124 (Depositary institution: National Institute for Advanced Industrial Science and Technology, International Patent Organism Depositary, Address of depositary institution: Central. 6, 1-1-1 Higashi, Tsukuba City, Ibaraki Prefecture, Japan, International deposit date: Jul. 22, 2002). 100 μl of 100 mM borate buffer (pH 9.0) containing the various carboxy components at a final concentration of 100 mM and the various amine components at a final concentration of 150 mM shown in Tables 15-1 to 15-4, the SP-Sepharose HP fraction enzyme purified in Example 22 (addition of 0.33 units in the reaction liquid) and 10 mM EDTA were allowed to react at 25° C. for 1.5 hours. […] In addition, hydrochlorides were used for all carboxy components.
Substrate specificity with respect to oligopeptide production was examined for enzyme derived from Sphingobacterium sp. strain FERM BP-8124 (Depositary institution: National Institute for Advanced Industrial Science and Technology,.International Patent Organism Depositary, Address of depositary institution: Chuo Dai-6, 1-1 Higashi 1-Chome, Tsukuba-shi, Ibaraki-ken, Japan, International deposit date: Jul. 22, 2002). A 100 μl aliquot of 100 mM borate buffer (pH 9.0) containing the various carboxy components at a final concentration of 100 mM and the various amine components at a final concentration of 150 mM shown in Table 16, the SP-Sepharose HP fraction enzyme purified in Example 22 (addition of 0.33 units in the reaction liquid) and 10 mM EDTA were allowed to react for 1.5 hours at 25° C. Furthermore, hydrochloride salts were used for all carboxy components.

[3] = tested on: peptide-producing enzyme (Mono S fraction) from Empedobacter brevis strain FERM BP-8113; experiment: Enzyme substrate specificity (1)-(10), (13), (14); details: pH 9.0, 25° C., 3 hours
From the text: as §1

[4] = carboxy component 100 mM, amine component 150 mM, 0.1 unit enzyme, 25° C., reaction time 3 hr
[5] = L-amino acid methyl ester hydrochloride 100 mM, 150 mM L-glutamine, pH 9.0, 25° C., 3 hours
[6] = L-amino acid methyl ester hydrochloride 100 mM, 150 mM L-glutamine
[7] = Table 15-2, carboxy component 100 mM, L-Gln 150 mM
[8] = L-amino acid methyl ester hydrochloride 100 mM, L-amino acid 150 mM
[9] = Table 15-3, carboxy component 100 mM, amine component 150 mM
[10] = L-amino acid ester 100 mM, amino acid or peptide amine component 150 mM
[11] = Table 16, oligopeptide production, carboxy component 100 mM, amine component 150 mM

## C[C@@H](N)C(=O)N[C@H](CCC(N)=O)C(=O)O [D-Ala-D-Gln] (H-[dA]-[dQ]-OH)
[1]; L or D amino acid methyl ester hydrochloride 100 mM, L or D amino acid 150 mM, pH 9.0, 25° C., 3 hours
  Produced peptide (mM): tr

## NC(=O)CC[C@H](NC(=O)[C@@H](N)Cc1ccc2ccccc2c1)C(=O)O [H-2-Nal-H-Gln-OH] (H-[2Nal]-Gln-OH)
[1]; carboxy component 40 mM, amine component 40 mM, 0.1 unit enzyme, 25° C., reaction time 3 hr
  Produced peptide (mM): tr

## NC(=O)CC[C@H](NC(=O)[C@@H](N)Cc1ccc(Cl)cc1)C(=O)O [H-Cl-F-Phe-H-Gln-OH]
[1]; carboxy component 25 mM, amine component 50 mM, 0.1 unit enzyme, 25° C., reaction time 3 hr
  Produced peptide (mM): tr

## CN[C@@H](C)C(=O)N[C@@H](Cc1ccccc1)C(=O)O [H-N-Me-Ala-Phe-OH]
[1]; [4]
  Produced peptide (mM): tr

## CC(C)(C)OC[C@H](N)C(=O)N[C@@H](CCC(N)=O)C(=O)O [H-Ser(tBu)-Gln-OH] (H-Ser(tBu)-Gln-OH)
[1]; carboxy component 100 mM, amine component 150 mM, 0.1 unit enzyme, 25° C., reaction time 2 hr
  Produced peptide (mM): tr

## NC(=O)CC[C@H](NC(=O)[C@@H](N)Cc1ccc(F)cc1)C(=O)O [H-p-F-Phe-H-Gln-OH]
[1]; [4]
  Produced peptide (mM): tr

## CC(C)(C)[C@H](N)C(=O)N[C@@H](CCC(N)=O)C(=O)O [H-t-Leu-H-Gln-OH] (H-[Tle]-Gln-OH)
[1]; [4]
  Produced peptide (mM): tr

## C[C@H](N)C(=O)N[C@@H](CS)C(=O)O [L-Ala-L-CySH] (H-Ala-Cys-OH)
[1]; 100 mM L-alanine methyl ester hydrochloride, L-amino acid 150 mM, pH 9.0, 25° C., 3 hours
  Produced peptide (mM): +
[2]; Table 15-1, carboxy component 100 mM, amine component 150 mM
  Produced peptide (mM): +

## NC(=O)CC[C@H](NC(=O)[C@@H](N)CC(N)=O)C(=O)O [L-Asn-L-Gln] (H-Asn-Gln-OH)
[1]; [5]
  Produced peptide (mM): +

## NC(=O)CC[C@H](NC(=O)[C@@H](N)CS)C(=O)O [L-CySH-L-Gln] (H-Cys-Gln-OH)
[1]; [5]
  Produced peptide (mM): +

## NC(=O)CC[C@H](NC(=O)[C@@H](N)Cc1cnc[nH]1)C(=O)O [L-His-L-Gln] (H-His-Gln-OH)
[1]; [5]
  Produced peptide (mM): +

## CC(C)C[C@H](N)C(=O)N[C@@H](CCC(N)=O)C(=O)O [L-Leu-L-Gln] (H-Leu-Gln-OH)
[1]; [5]
  Produced peptide (mM): +

## NCCCC[C@H](N)C(=O)N[C@@H](CCC(N)=O)C(=O)O [L-Lys-L-Gln] (H-Lys-Gln-OH)
[1]; [5]
  Produced peptide (mM): +

## NC(=O)CC[C@H](NC(=O)[C@@H](N)CO)C(=O)O [L-Ser-L-Gln] (H-Ser-Gln-OH)
[3]; [6]
  Produced peptide: 24.0 mM
[2]; [7]
  Produced peptide: 12.9 mM

## CSCC[C@H](NC(=O)[C@@H](N)CO)C(=O)O [L-Ser-L-Met] (H-Ser-Met-OH)
[3]; [8]
  Produced peptide: 12.5 mM
[2]; [9]
  Produced peptide: 7.6 mM

## N[C@@H](CO)C(=O)N[C@@H](Cc1ccccc1)C(=O)O [L-Ser-L-Phe]
[3]; [8]
  Produced peptide: 20.3 mM
[2]; [9]
  Produced peptide: 4.3 mM

## C[C@@H](O)[C@H](N)C(=O)NCC(=O)O [L-Thr-Gly] (H-Thr-Gly-OH)
[3]; [8]
  Produced peptide: 9.4 mM
[2]; [9]
  Produced peptide: 0.4 mM

## C[C@H](NC(=O)[C@@H](N)[C@@H](C)O)C(=O)O [L-Thr-L-Ala] (H-Thr-Ala-OH)
[3]; [8]
  Produced peptide: 9.4 mM
[2]; [9]
  Produced peptide: 5.8 mM

## C[C@@H](O)[C@H](N)C(=O)N[C@@H](CCC(N)=O)C(=O)O [L-Thr-L-Gln] (H-Thr-Gln-OH)
[3]; L-amino acid amide hydrochloride 100 mM as carboxy component, L-amino acid 150 mM
  Produced peptide: 0.3 mM
[3]; [6]
  Produced peptide: 81.9 mM
[2]; [7]
  Produced peptide: 36.1 mM

## CSCC[C@H](NC(=O)[C@@H](N)[C@@H](C)O)C(=O)O [L-Thr-L-Met] (H-Thr-Met-OH)
[3]; [8]
  Produced peptide: 38.6 mM
[2]; [9]
  Produced peptide: 28.9 mM

## CC(C)[C@H](NC(=O)[C@@H](N)[C@@H](C)O)C(=O)O [L-Thr-L-Val] (H-Thr-Val-OH)
[3]; [8]
  Produced peptide: 0.7 mM
[2]; [9]
  Produced peptide: 1.3 mM

## CNC(=O)[C@@H](N)[C@@H](C)O [L-Thr-methylamine]
[3]; amino acid methyl ester 100 mM, methylamine 150 mM
  Produced peptide: 0.2 mM
[2]; Table 15-4, amides or methylamine as components, 100 mM / 150 mM
  Produced peptide: 0.3 mM

## NC(=O)CCC(NC(=O)C(N)Cc1c[nH]c2ccccc12)C(=O)O [L-Trp-L-Gln] (H-Trp-Gln-OH; configuration not given here)
[1]; [5]
  Produced peptide (mM): +

## NC(=O)CC[C@H](NC(=O)[C@@H](N)Cc1ccc(O)cc1)C(=O)O [L-Tyr-L-Gln] (H-Tyr-Gln-OH)
[3]; [6]
  Produced peptide: 3.4 mM
[2]; [7]
  Produced peptide: 0.6 mM

## CC(C)[C@H](N)C(=O)N[C@@H](CCC(N)=O)C(=O)O [L-Val-L-Gln] (H-Val-Gln-OH)
[3]; [6]
  Produced peptide: 15.4 mM
[2]; [7]
  Produced peptide: 8.2 mM

## CC(C)[C@H](N)C(=O)N[C@@H](Cc1ccccc1)C(=O)O [L-Val-L-Phe] (H-Val-Phe-OH)
[3]; [8]
  Produced peptide: 6.1 mM
[2]; [9]
  Produced peptide: 1.0 mM

## CC(C)[C@H](N)C(=O)N[C@@H](CO)C(=O)O [L-Val-L-Ser] (H-Val-Ser-OH)
[3]; [8]
  Produced peptide: 30.8 mM
[2]; [9]
  Produced peptide: 31.9 mM

## NC(=O)CC[C@H](NC(=O)[C@@H](N)CCC(=O)O)C(=O)O [α-L-Glu-L-Gln] (H-Glu-Gln-OH)
[1]; [5]
  Produced peptide (mM): +

## C[C@H](NC(=O)CCN)C(=O)O [β-Ala-L-α-Ala]
[1]; β-amino acid ester as carboxy component or β-amino acid as amine component, 100 mM / 150 mM, pH 9.0, 25° C., 3 hours
  Produced peptide (mM): tr

## NC(=O)CC[C@H](NC(=O)C[C@H](N)C(=O)O)C(=O)O [β-L-Asp-L-Gln]
[1]; [5]
  Produced peptide (mM): tr

## NC(=O)CC[C@H](NC(=O)CC[C@H](N)C(=O)O)C(=O)O [γ-L-Glu-L-Gln]
[1]; [5]
  Produced peptide (mM): +

## Gly-L-Ala-L-Tyr
[3]; [10]
  Produced peptide: 1.7 mM
[2]; [11]
  Produced peptide: 0.6 mM

## L-Ala-Gly-Gly
[3]; [10]
  Produced peptide: 41.7 mM
[2]; [11]
  Produced peptide: 33.7 mM

## L-Ala-Gly-L-Ala
[3]; [10]
  Produced peptide: 25.9 mM
[2]; [11]
  Produced peptide: 35.1 mM

## L-Ala-L-Ala-L-Ala
[3]; [10]
  Produced peptide: 57.5 mM
[2]; [11]
  Produced peptide: 41.1 mM

## L-Ala-L-Ala-L-Ala-L-Ala
[3]; [10]
  Produced peptide: 44.5 mM
[2]; [11]
  Produced peptide: 30.1 mM

## L-Ala-L-His-L-Ala
[3]; [10]
  Produced peptide: 55.9 mM
[2]; [11]
  Produced peptide: 58.0 mM

## L-Ala-L-Leu-L-Ala
[3]; [10]
  Produced peptide: 48.3 mM
[2]; [11]
  Produced peptide: 40.7 mM

## L-Ala-L-Phe-Gly
[3]; [10]
  Produced peptide: 43.7 mM
[2]; [11]
  Produced peptide: 34.0 mM

## L-Ala-L-Phe-L-Ala
[3]; [10]
  Produced peptide: 49.7 mM
[2]; [11]
  Produced peptide: 24.8 mM

## L-Thr-Gly-Gly
[3]; [10]
  Produced peptide: 83.0 mM
[2]; [11]
  Produced peptide: 8.4 mM
